For this test, the target named is T1, VEGFR1 (Homo sapiens, UniProt P17948).
T1 construct: GST-VEGFR1 (residues R781-I1338); GST (N); made in house; host or cells: Sf9 insect cells
T1 sequence (P17948 781-1338): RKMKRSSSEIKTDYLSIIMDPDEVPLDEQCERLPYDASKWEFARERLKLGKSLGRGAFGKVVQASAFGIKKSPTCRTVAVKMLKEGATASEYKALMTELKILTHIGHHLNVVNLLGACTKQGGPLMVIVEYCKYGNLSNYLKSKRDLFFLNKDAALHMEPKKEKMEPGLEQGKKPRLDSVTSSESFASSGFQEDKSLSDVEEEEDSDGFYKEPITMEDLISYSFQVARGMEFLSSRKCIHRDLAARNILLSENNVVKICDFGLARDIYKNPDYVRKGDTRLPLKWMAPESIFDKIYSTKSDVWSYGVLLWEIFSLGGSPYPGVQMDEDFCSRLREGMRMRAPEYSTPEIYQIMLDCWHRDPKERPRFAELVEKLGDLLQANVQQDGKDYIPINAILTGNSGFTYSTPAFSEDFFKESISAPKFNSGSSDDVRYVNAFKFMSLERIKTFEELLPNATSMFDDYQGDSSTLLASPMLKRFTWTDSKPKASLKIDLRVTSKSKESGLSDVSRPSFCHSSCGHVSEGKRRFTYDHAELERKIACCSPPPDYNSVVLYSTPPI
Nature of the test: VEGFR1 Kinase-Glo kinase assay. The class given is biochemical.

[1] abbreviates: VEGFR1 assay, 1 μM ATP, bound in nM, read-out: IC50.
The mark [2] stands for this setting: VEGFR1 assay, 1 μM ATP, bound in μM, read-out: IC50.
Where [3] appears, read: table of representative values, read-out: IC50 (nM) VEGFR1.

Molecules are shown by their SMILES. Where two headings read alike, the source gives them in different places.

Among the data in patent US9255072B2, “Pyrazole compounds and thiazole compounds as protein kinases inhibitors” (National Health Rsearch Institutes, priority 2011, dated 2016) are IC50 values, retold here.

As to `CCc1cc(NC(=O)Nc2ccc(-c3cnc(Nc4cc(N5CCC(N)C5)nc(C)n4)s3)cc2)no1` (stereo not drawn) [Compound 119, N-[4-(2-[6-(3-aminotetrahydro-1H-1-pyrrolyl)-2-methyl-4-pyrimidinyl]amino-1,3-thiazol-5-yl)phenyl]N′-(5-ethyl-3-isoxazolyl)urea], the IC50 under setting [1] is below 100 nM, the IC50 under setting [2] is below 1000 nM and the IC50 under setting [3] turned out to be 63 nM.
Regarding `CCc1cc(NC(=O)Nc2ccc(-c3cnc(Nc4cc(N5CCN(CC)CC5)nc(C)n4)s3)cc2)no1` [Compound 112, N-(5-ethyl-3-isoxazolyl)-N′-[4-(2-[6-(4-ethylpiperazino)-2-methyl-4-pyrimidinyl]amino-1,3-thiazol-5-yl)phenyl]urea], the IC50 reads like this: under setting [1], below 100 nM; under setting [2], below 1000 nM; under setting [3], 20 nM.
